Measurements published in patent publication US8148361B2, “Kinase inhibitors” (Bristol-Myers Squibb Company, priority 2006, dated 2012).

Experiments:
VEGFR-2 = VEGFR-2 (Homo sapiens, UniProt P35968); test: VEGFR-2 kinase assay; assay type: biochemical; settings: poly glu/tyr substrate, 33P-ATP; read-out: VEGFR2 IC50
Protocol: 1. VEGFR-2 and FGFR-1 Kinase Assays:
Incubation mixtures employed for VEGFR-2 or FGFR-1 assay contain the synthetic substrate poly glu/tyr, (4:1), ATP, ATP-γ-^33P and buffer containing Mn^++ and/or Mg^++, DTT, BSA, and Tris buffer. The reaction is initiated by addition of enzyme and after 60 minutes at room temperature is terminated by the addition of 30% TCA to a final concentration of 15% TCA. Inhibitors are brought to 10 mM in 100% DMSO. Assays are prepared in a 96 well format in quadruplicate. Compounds are diluted 1:500 in 100% DMSO and then 1:10 in water for a final DMSO concentration of 10%. 10 μL are added to rows B-H in a 96 well format of 10% DMSO. 20 μl of compound is added to row A at a concentration 5 fold higher than running conditions. Ten μL are transferred to each row followed by six serial dilutions with mixing, and at row F 10 μL are discarded. Row G is a control with no compound and row H is no compound and no enzyme control. Enzyme and substrate are delivered using a Tomtec Quadra station.
Plates are covered with sticky plate tops, incubated at 27° C. for 60 minutes, and then acid precipitated with TCA for 20 minutes on ice. The precipitate is transferred to UniFilter-96, GF/C microplates using either a Tomtec or Packard FilterMate harvester. Activity is determined by quantitating the incorporated radioactivity using a Packard TopCount Microplate Scintillation Counter following the addition of Microscint-20 cocktail into each dried well of the UniFilter microplates.

[1] = target: T1, IGF-1 receptor tyrosine kinase (Homo sapiens, UniProt P08069); test: IGF-receptor tyrosine kinase assay; assay type: biochemical; settings: poly(Glu/Tyr) substrate, 25 μM ATP, baculovirus expressed enzyme; read-out: IGF1R IC50
T1 construct: host or cells: baculovirus expression system
T1 sequence (P08069 31-1367): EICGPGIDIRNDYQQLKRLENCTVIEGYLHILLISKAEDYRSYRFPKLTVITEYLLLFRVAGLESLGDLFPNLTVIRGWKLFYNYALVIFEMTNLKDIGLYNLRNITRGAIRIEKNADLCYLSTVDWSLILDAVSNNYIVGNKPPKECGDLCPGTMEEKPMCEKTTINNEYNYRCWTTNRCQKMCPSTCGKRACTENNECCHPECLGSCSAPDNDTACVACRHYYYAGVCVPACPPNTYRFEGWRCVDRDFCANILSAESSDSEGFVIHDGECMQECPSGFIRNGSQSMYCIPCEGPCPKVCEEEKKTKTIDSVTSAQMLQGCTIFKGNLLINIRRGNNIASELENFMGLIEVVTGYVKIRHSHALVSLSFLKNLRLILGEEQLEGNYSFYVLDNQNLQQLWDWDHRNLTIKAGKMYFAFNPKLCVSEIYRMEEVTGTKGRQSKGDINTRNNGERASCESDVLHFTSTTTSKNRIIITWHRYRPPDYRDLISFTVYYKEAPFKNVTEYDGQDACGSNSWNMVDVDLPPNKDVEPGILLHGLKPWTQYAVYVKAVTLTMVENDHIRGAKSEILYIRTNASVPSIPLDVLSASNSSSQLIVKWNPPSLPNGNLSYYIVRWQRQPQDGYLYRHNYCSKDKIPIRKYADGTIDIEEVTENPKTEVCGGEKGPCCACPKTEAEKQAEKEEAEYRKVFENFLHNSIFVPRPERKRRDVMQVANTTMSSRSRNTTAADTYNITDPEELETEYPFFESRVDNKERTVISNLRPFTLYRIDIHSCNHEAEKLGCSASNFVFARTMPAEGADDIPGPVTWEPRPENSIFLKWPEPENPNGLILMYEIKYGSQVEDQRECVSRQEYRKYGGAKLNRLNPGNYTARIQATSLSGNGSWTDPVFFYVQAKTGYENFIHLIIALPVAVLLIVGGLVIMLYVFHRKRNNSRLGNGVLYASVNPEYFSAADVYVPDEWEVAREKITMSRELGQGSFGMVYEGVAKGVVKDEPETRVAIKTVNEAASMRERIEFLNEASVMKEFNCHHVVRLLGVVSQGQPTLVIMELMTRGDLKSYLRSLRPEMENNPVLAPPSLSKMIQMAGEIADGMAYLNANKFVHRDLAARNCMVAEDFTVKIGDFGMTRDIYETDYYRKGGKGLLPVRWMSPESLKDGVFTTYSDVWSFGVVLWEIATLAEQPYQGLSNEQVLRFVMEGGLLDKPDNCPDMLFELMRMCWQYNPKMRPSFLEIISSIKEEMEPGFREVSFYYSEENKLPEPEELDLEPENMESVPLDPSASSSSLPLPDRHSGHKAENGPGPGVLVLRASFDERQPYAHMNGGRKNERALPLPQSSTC
Protocol: 3. IGF-Receptor Tyrosine Kinase Assay
The IGF-1 receptor tyrosine kinase was assayed using the synthetic polymer poly(Glu/Tyr) (Sigma Chemicals) as a phosphoacceptor substrate. Each reaction mixture consisted of a total volume of 50 ul and contained 125 ng of baculovirus expressed enzyme, 2.5 μg of poly(Glu/Tyr), 25 μM of ATP, and 0.1 μCi of [γ-^33P]ATP. The mixtures also contained 20 mM MOPS, pH 7.0, 5 mM MnCl2, 0.5 mM […], and 0.1 mg/ml bovine serum albumin. The reaction mixtures were incubated at 30° C. for 45 minutes and kinase activity was determined by quantitation of the amount of radioactive phosphate transferred to the poly(Glu/Tyr) substrate. Incorporation was measured by the addition of cold trichloroacetic acid (TCA) precipitation of the proteins which were collected onto GF/C unifilter plates (Packard Instrument Co., Meriden, Conn.) using a Filtermate universal harvester and the filters were quantitated using a TopCount 96-well liquid scintillation counter (Packard Instrument Co., Meriden, Conn.). Compounds were dissolved in dimethyl sulfoxide to a concentration of 10 mM and were evaluated at six concentrations, each in triplicate.

VEGFR-2, sequence (P35968 20-1356): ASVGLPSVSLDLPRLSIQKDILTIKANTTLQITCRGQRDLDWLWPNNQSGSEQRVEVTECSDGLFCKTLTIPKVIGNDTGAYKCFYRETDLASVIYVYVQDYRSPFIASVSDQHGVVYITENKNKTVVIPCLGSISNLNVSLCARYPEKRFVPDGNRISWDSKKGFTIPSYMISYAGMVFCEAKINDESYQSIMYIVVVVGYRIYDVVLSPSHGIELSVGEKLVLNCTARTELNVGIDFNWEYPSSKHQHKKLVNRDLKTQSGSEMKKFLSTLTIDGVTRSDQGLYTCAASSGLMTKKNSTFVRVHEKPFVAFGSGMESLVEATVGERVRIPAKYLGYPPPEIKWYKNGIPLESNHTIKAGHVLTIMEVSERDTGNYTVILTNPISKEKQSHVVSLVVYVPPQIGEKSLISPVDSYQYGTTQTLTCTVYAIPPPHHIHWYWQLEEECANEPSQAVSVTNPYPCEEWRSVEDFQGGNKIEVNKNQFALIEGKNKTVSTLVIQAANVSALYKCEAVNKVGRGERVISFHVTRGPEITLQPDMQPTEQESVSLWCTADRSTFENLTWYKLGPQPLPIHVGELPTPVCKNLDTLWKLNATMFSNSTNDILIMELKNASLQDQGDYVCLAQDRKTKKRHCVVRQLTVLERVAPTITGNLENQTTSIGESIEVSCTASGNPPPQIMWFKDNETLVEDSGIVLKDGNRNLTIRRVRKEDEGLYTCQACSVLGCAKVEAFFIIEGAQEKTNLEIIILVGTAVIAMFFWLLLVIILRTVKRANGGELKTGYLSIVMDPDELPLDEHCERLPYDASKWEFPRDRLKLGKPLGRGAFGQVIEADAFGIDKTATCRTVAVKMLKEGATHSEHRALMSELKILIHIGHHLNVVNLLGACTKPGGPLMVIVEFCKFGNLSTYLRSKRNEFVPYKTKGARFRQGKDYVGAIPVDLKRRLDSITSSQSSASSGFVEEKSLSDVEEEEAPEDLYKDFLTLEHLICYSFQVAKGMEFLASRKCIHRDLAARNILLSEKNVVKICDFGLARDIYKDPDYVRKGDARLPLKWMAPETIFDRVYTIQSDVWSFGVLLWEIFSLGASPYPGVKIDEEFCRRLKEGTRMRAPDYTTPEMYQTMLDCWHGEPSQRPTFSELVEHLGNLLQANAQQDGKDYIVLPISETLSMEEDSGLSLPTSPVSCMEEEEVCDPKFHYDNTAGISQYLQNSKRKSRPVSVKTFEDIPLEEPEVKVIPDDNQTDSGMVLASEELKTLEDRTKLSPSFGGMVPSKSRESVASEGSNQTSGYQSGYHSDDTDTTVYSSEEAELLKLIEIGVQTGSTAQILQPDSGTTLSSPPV

SMILES	IC50 (VEGFR-2) [µM]	IC50 [1] [µM]
O=C(NC1CC1)c1ccc(F)c(CNc2cnc3[nH]c(-c4ccccc4)cc3c2)c1 [Example 3, N-cyclopropyl-4-fluoro-3-((2-phenyl-1H-pyrrolo[2,3-b]pyridin-5-ylamino)methyl)benzamide]	0.103	
O=C(NC1CC1)c1ccc(F)c(NCc2cnc3[nH]c(-c4ccccc4)cc3c2)c1 [Example 1, N-Cyclopropyl-4-fluoro-3-{(2-phenyl-1H-pyrrolo[2,3-b]pyridin-5-yl)methylamino}benzamide]	0.016	
O=C(NC1CC1)c1ccc(F)c(NCc2cnc3[nH]c(C4CC4)cc3c2)c1 [Example 4, N-cyclopropyl-3-((2-cyclopropyl-1H-pyrrolo[2,3-b]pyridin-5-yl)methylamino)-4-fluorobenzamide]	0.146	
O=C(NC1CC1)c1cc(NCc2cnc3[nH]c(-c4ccccc4)cc3c2)c(F)cc1F [Example 2, N-cyclopropyl-2,4-difluoro-5-((2-phenyl-1H-pyrrolo[2,3-b]pyridin-5-yl)methylamino)benzamide]	0.064	

Other lines, results leading:

IC50 (VEGFR-2) [µM]	IC50 [1] [µM]	SMILES
	0.199	O=C(NC1CN(S(=O)(=O)c2ccc(F)cc2)C1)c1cccc(Sc2cnc3[nH]c(-c4ccccc4)cc3c2)c1 [Example 13, N-(1-(4-fluorophenylsulfonyl)azetidin-3-yl)-3-(2-phenyl-1H-pyrrolo[2,3-b]pyridin-5-ylthio)benzamide]
0.017		O=C(NC1CC1)c1ccc(F)c(NCc2cnc3[nH]c(-c4cccnc4)cc3c2)c1 [Example 5, N-cyclopropyl-4-fluoro-3-((2-(pyridin-3-yl)-1H-pyrrolo[2,3-b]pyridin-5-yl)methylamino)benzamide]
